# Patent publication US8906914B2, “Ethylene diamine modulators of fatty acid hydrolase” (priority 2009, dated 2014)
# Counter-ions that a name gives are not always drawn.
# Columns and labels:
# thermal nociception [1] = conditions: rats; WO 04/033652; cited from earlier work
# thermal nociception [2] = conditions: rat; cited from earlier work
# FAAH [3] = target: T1, FAAH (Homo sapiens, UniProt O00519); conditions: reported; cited from earlier work
# T1 sequence (O00519 1-579): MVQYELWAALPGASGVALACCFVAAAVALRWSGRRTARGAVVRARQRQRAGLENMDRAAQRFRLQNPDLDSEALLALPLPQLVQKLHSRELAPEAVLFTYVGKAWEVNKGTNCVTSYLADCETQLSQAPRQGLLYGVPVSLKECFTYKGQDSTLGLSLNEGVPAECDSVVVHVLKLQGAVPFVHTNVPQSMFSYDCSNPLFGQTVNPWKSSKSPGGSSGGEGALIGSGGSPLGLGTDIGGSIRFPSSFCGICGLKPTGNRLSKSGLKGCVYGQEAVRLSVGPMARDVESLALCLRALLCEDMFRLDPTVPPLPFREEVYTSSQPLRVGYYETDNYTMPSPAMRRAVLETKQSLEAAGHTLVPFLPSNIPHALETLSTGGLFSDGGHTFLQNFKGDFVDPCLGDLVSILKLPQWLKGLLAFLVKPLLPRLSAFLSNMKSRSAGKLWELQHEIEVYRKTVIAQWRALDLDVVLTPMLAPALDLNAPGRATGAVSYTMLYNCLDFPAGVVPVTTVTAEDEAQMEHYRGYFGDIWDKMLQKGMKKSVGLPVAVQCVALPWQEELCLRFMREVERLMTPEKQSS
# nociception = conditions: rat; Kathuria 2003; cited from earlier work
# anxiety = conditions: rats; Kathuria 2003; cited from earlier work
# [4] = tested on: acute thermal nociception; conditions: rats; WO 02/087569; cited from earlier work
# neuropathic pain = conditions: rats; WO 02/087569; cited from earlier work
# spasticity = conditions: Baker 2001; cited from earlier work
# FAAH [5] = target: T1, FAAH; assay: Human FAAH assay (Assay Method 1), 3H-anandamide hydrolysis in cell homogenate; assay type: biochemical; set-up: expressed in transfected cells; alternatively T84 frozen cell pellets (endogenous FAAH)
# Procedure, shortened: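 Homogenate of SK-N-MC cells stably transfected with human FAAH, incubated with compound and 80 nM (final) 3H-anandamide for 1 h at rt. Released 3H-ethanolamine separated from substrate on activated charcoal by centrifugation and counted by scintillation; ">" values denote solubility limit or top concentration tested.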
# Rat FAAH-1 = target: T2, Rat FAAH-1 (Rattus norvegicus, UniProt P97612); assay: Rat FAAH-1 assay (Assay Method 2), 3H-anandamide hydrolysis in cell homogenate; assay type: biochemical
# T2 construct: expressed in transfected cells
# T2 sequence (P97612 1-579): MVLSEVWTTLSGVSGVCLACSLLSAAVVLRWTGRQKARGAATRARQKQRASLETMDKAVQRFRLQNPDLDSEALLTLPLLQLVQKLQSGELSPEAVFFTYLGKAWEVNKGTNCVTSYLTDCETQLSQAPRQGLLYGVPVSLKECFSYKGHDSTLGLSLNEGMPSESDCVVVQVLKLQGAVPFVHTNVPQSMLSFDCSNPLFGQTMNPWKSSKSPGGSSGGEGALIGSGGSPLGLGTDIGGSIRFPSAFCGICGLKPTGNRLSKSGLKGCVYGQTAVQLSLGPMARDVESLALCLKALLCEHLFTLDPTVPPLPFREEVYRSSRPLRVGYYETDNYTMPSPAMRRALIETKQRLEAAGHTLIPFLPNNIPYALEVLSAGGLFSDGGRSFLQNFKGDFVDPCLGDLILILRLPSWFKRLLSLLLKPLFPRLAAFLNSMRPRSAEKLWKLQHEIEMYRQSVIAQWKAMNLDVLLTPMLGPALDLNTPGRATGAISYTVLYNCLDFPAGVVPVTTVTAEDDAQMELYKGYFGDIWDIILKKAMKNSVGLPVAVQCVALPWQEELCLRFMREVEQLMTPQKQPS
# Procedure, shortened: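 Homogenate of SK-N-MC cells stably transfected with rat FAAH cDNA, incubated with test compound and 80 nM final 3H-anandamide (ethanolamine-labelled) for 1 h at rt. Released 3H-ethanolamine separated from substrate on activated charcoal filters by centrifugation and counted by scintillation.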
SMILES,IC50 (FAAH [5]),IC50 (Rat FAAH-1),further results
O=C(CCCCCCc1ccccc1)c1ncc(-c2ccccn2)o1 [OL-135],,,analgesic activity in tail emersion test (thermal nociception [1]): analgesic activity; analgesic efficacy/activity in hot plate test (thermal nociception [2]): analgesic activity; inhibition of FAAH (FAAH [3]): potent inhibitor
NC(=O)c1cccc(-c2cccc(OC(=O)NC3CCCCC3)c2)c1 [URB-597],,,analgesic efficacy in formalin test (nociception): analgesic efficacy; efficacy in zero plus maze model of anxiety (anxiety): efficacy; analgesic efficacy/activity in hot plate test (thermal nociception [2]): analgesic efficacy
Cc1nc(-c2ccccc2)c(-c2ccccc2)n1CCCCCCNC(=O)Oc1ccccc1F [BMS-1],,,analgesic effect in Hargraves test [4]: analgesic effect; analgesic effect in Chung spinal nerve ligation model (neuropathic pain): analgesic effect
CCCCCCCCCCCCCCCCS(=O)(=O)F [AM374],,,spasticity in CREAE mice (spasticity): significantly reduce spasticity
"CS(=O)(=O)c1ccc([C@@H](N)CNc2cc(-c3ccc(C(F)(F)F)c(Cl)c3)ncn2)cc1 [Example 63, (1R)—N^2-[6-(3-Chloro-4-trifluoromethyl-phenyl)-pyrimidin-4-yl]-1-(4-methanesulfonyl-phenyl)-ethane-1,2-diamine]",> 10000 nM,> 10000 nM,
"N[C@@H](CNc1cc(-c2ccc3c(c2)OC(F)(F)O3)ncn1)c1ccccc1 [Example 24, (1R)—N^2-[6-(2,2-Difluoro-1,3-benzodioxol-5-yl)pyrimidin-4-yl]-1-phenylethane-1,2-diamine hydrochloride acid salt]",270 nM,1000 nM,
"N[C@@H](CNc1cc(-c2ccc(Cl)cc2)ncn1)c1ccccc1 [Example 14, (1R)—N^2-[6-(4-Chlorophenyl)pyrimidin-4-yl]-1-phenylethane-1,2-diamine hydrochloride acid salt]",1000 nM,> 10000 nM,
"CCOc1ccc(-c2cc(NC[C@H](N)c3ccccc3)ncn2)cc1 [Example 19, (1R)—N^2-[6-(4-Ethoxyphenyl)pyrimidin-4-yl]-1-phenylethane-1,2-diamine hydrochloride acid salt]",70 nM,1000 nM,
"N#Cc1cccc([C@H](N)CNc2cc(-c3ccc(C(F)(F)F)c(Cl)c3)ncn2)c1 [Example 48, (1S)-3-{1-Amino-2-[6-(3-chloro-4-trifluoromethyl-phenyl)-pyrimidin-4-ylamino]-ethyl}-benzonitrile]",3000 nM,3000 nM,
"N[C@@H](CNc1cc(-c2ccc3c(C(F)(F)F)noc3c2)ncn1)c1ccc(F)cc1 [Example 65, (1R)—N^2-1-(4-Fluoro-phenyl)-[6-(3-trifluoromethyl-benzo[d]isoxazol-6-yl)-pyrimidin-4-yl]ethane-1,2-diamine, trifluoroacetic acid salt]",45 nM,57 nM,
"N[C@H](CNc1cc(-c2ccc(C(F)(F)F)c(Cl)c2)ncn1)c1cccc(F)c1 [Example 36, (1S)—N^2-[6-(3-Chloro-4-trifluoromethyl-phenyl)-pyrimidin-4-yl]-1-(3-fluoro-phenyl)-ethane-1,2-diamine, trifluoroacetic acid salt]",1000 nM,2600 nM,
"N[C@@H](CNc1cc(-c2ccc(Cl)c(C(F)(F)F)c2)ncn1)c1ccccc1 [Example 17, (1R)—N^2-{6-[4-Chloro-3-(trifluoromethyl)phenyl]pyrimidin-4-yl}-1-phenylethane-1,2-diamine hydrochloride acid salt]",250 nM,900 nM,
"N[C@H](CNc1cc(-c2ccc(C(F)(F)F)c(Cl)c2)ncn1)c1ccc2c(c1)OC(F)(F)O2 [Example 31, (1S)—N^2-[6-(3-Chloro-4-trifluoromethyl-phenyl)-pyrimidin-4-yl]-1-(2,2-difluoro-benzo[1,3]dioxol-5-yl)-ethane-1,2-diamine]",630 nM,770 nM,
"N[C@@H](CNc1cc(-c2ccc(C(F)(F)F)c(F)c2)ncn1)c1ccccc1 [Example 4, (1R)—N^2-{6-[3-Fluoro-4-(trifluoromethyl)phenyl]pyrimidin-4-yl}-1-phenylethane-1,2-diamine hydrochloride acid salt]",100 nM,320 nM,
"N[C@@H](CNc1cc(-c2ccc(C(F)(F)F)c(Cl)c2)ncn1)c1ccc2ccccc2c1 [Example 51, (1R)—N^2-[6-(3-Chloro-4-trifluoromethyl-phenyl)-pyrimidin-4-yl]-1-naphthalen-2-yl-ethane-1,2-diamine]",125 nM,40 nM,
"N[C@@H](CNc1cc(-c2ccc(C(F)(F)F)c(Cl)c2)ncn1)c1ccc(SC(F)(F)F)cc1 [Example 61, (1R)—N^2-[6-(3-Chloro-4-trifluoromethyl-phenyl)-pyrimidin-4-yl]-1-(4-trifluoromethylsulfanyl-phenyl)-ethane-1,2-diamine]",180 nM,130 nM,
"N#Cc1ccc([C@@H](N)CNc2cc(-c3ccc(C(F)(F)F)c(Cl)c3)ncn2)cc1F [Example 52, (1R)-4-{1-Amino-2-[6-(3-chloro-4-trifluoromethyl-phenyl)-pyrimidin-4-ylamino]-ethyl}-2-fluoro-benzonitrile]",130 nM,240 nM,
"N[C@@H](CNc1cc(-c2ccc(SC(F)(F)F)cc2)ncn1)c1ccccc1 [Example 11, (1R)-1-Phenyl-N^2-(6-{4-[(trifluoromethyl)sulfanyl]phenyl}pyrimidin-4-yl)ethane-1,2-diamine hydrochloride acid salt]",19 nM,170 nM,
